Measurements: patent publication US11236069B2, “KIF18A inhibitors” (AMGEN INC., priority 2018, dated 2022)

Biological target: Recombinant human KIF18A (1-467 His-tagged) protein (Homo sapiens (Human), UniProt Q8NI77)
Assay: KIF18A Enzyme Assay: microtubule-stimulated ATPase activity (ADP-Glo)
Details: read-out: KIF18A ATPase IC50; 30 nM KIF18A, 30 μg/mL pig microtubules, ATP at Km 75 μM, ADP-Glo luminescence
From the text: KIF18A Enzyme Assay: Microtubule-stimulated ATPase activity assay is used to measure KIF18A enzyme activity after treatment with compound. Compounds were 2-fold serially diluted in DMSO (Sigma Inc) over 22-point concentration range. […] The assay measures ADP formed from the ATPase reaction.

Recombinant human KIF18A (1-467 His-tagged) protein, sequence (Q8NI77 1-467): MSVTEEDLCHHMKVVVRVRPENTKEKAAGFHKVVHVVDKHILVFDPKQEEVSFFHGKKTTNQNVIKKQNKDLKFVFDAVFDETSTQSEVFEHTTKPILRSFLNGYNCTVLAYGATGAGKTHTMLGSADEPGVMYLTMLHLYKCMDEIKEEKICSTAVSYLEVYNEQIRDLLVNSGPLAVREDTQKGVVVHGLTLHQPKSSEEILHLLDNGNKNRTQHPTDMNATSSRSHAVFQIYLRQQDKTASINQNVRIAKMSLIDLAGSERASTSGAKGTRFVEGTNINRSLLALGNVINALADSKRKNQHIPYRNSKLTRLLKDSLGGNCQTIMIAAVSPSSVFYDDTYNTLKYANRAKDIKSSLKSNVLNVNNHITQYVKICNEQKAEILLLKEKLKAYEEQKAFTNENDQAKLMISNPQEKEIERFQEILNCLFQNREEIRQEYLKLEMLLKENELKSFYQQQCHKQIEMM
Recombinant human KIF18A (1-467 His-tagged) protein, sequence (P02550 whole entry partner): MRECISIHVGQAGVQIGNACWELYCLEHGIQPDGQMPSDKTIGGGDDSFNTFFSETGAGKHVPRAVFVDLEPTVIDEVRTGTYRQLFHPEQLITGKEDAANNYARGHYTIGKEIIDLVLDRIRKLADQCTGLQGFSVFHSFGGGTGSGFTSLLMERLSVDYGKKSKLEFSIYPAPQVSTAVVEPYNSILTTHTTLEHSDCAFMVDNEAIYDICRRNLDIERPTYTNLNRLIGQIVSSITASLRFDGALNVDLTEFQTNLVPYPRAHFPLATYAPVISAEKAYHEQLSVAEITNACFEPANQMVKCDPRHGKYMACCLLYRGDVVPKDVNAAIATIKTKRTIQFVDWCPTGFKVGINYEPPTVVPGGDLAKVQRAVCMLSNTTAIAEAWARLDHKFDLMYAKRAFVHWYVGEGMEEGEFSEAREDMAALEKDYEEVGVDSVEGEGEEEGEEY
Recombinant human KIF18A (1-467 His-tagged) protein, sequence (P02554 whole entry partner): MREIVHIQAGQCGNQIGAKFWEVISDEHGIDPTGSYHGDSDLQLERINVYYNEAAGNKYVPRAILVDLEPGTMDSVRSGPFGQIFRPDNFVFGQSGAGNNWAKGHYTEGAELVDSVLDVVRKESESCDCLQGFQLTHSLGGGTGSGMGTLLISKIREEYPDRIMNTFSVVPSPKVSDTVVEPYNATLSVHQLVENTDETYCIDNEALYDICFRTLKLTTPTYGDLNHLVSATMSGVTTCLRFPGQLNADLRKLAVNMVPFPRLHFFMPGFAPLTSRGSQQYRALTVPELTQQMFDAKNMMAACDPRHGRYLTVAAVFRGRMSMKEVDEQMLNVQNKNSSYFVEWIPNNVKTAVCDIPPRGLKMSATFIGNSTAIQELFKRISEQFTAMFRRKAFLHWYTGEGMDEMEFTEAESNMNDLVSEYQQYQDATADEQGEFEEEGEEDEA

| Structure (SMILES) | IC50 |
| --- | --- |
| Cc1cc(NC(=O)c2ccc(NS(=O)(=O)CCO)cc2N2CCC3(CC2)CC3)nc(N2CCO[C@H](C)C2)n1 [Example 3, (R)-4-((2-Hydroxyethyl)sulfonamido)-N-(6-methyl-2-(2-methylmorpholino)pyrimidin-4-yl)-2-(6-azaspiro[2.5]octan-6-yl)benzamide] | 57 nM |
| Cc1cc(NC(=O)c2ccc(S(C)(=O)=O)cc2N2CCC3(CC2)CC3)nc(N[C@H](C)CO)n1 [Example 1-1, (R)-N-(2-((1-Hydroxypropan-2-yl)amino)-6-methylpyrimidin-4-yl)-4-(methylsulfonyl)-2-(6-azaspiro[2.5]octan-6-yl)benzamide] | 216 nM |
| Cc1cc(NC(=O)c2ccc(NS(=O)(=O)CC3CC3)cc2N2CCC3(CC2)CC3)nc(N2CC(F)(F)C2)n1 [Example 11-78, 4-((Cyclopropylmethyl)sulfonamido)-N-(2-(3,3-difluoroazetidin-1-yl)-6-methylpyrimidin-4-yl)-2(6-azaspiro[2.5]octan-6-yl)benzamide] | 125 nM |
| Cc1cc(NC(=O)c2ccc(NS(=O)(=O)C(C)C)cc2N2CCC3(CC2)CC3)nc(N2CCC(F)(F)CC2)n1 [Example 6-22, N-(2-(4,4-Difluoropiperidin-1-yl)-6-methylpyrimidin-4-yl)-4-((1-methylethyl)sulfonamido)-2-(6-azaspiro[2.5]octan-6-yl)benzamide] | 151 nM |
| Cc1cc(NC(=O)c2ccc(NS(=O)(=O)[C@@H](CO)CF)cc2N2CCC3(CC2)CC3)nc(N2CCC(F)(F)CC2)n1 [Example 16-2, (S)-N-(2-(4,4-Difluoropiperidin-1-yl)-6-methylpyrimidin-4-yl)-4-((2-fluoro-1-(hydroxymethyl)ethyl)sulfonamido)-2-(6-azaspiro[2.5]octan-6-yl)benzamide] | 96 nM |
| Cc1cc(NC(=O)c2ccc(S(=O)(=O)C(C)C)cc2N2CCC3(CC2)CC3)nc(N2CCC(F)(F)CC2)n1 [Example 14-3, N-(2-(4,4-Difluoropiperidin-1-yl)-6-methylpyrimidin-4-yl)-4-(isopropylsulfonyl)-2-(6-azaspiro[2.5]octan-6-yl)benzamide] | 128 nM |
| Cc1cc(NC(=O)c2ccc(NS(=O)(=O)CCO)cc2N2CCC3(CC2)CC3)nc(O[C@@H]2CCOC2)n1 [Example 11-80, (R)-4-((2-Hydroxyethyl)sulfonamido)-N-(6-methyl-2-((tetrahydrofuran-3-yl)oxy)pyrimidin-4-yl)-2-(6-azaspiro[2.5]octan-6-yl)benzamide] | 117 nM |
| Cc1cc(NC(=O)c2ccc([S@](=N)(=O)C3CC3)cc2N2CCC3(CC2)CC3)nc(N2CCO[C@H](C)C2)n1 [Example 19-7, 2-(6-Azaspiro[2.5]octan-6-yl)-4-(S-cyclopropylsulfonimidoyl)-N-(6-methy-2-((2R)-2-methyl-4-moprpholinyl)-4-pyrimidinyl)benzamide] | 195 nM |
| Cc1cc(NC(=O)c2ccc(NS(=O)(=O)CCO)cc2N2CCC3(CC2)CC3)nc(N2CCCC2)n1 [Example 11-26, 4-((2-Hydroxyethyl)sulfonamido)-N-(6-methyl-2-(pyrrolidin-1-yl)pyrimidin-4-yl)-2-(6-azaspiro[2.5]octan-6-yl)benzamide] | 71.6 nM |
| Cc1cc(NC(=O)c2ccc(S(=O)(=O)[C@H]3COC[C@@H]3O)cc2N2CCC3(CC2)CC3)nc(N2CCC(F)(F)CC2)n1 [Example 14-8, N-(2-(4,4-Difluoropiperidin-1-yl)-6-methylpyrimidin-4-yl)-4-(((S,4S)-4-hydroxytetrahydrofuran-3-yl)sulfonyl)-2-(6-azaspiro[2.5]octan-6-yl)benzamide] | 97 nM |
| Cc1cc(NC(=O)c2ccc(S(=O)(=O)C3CN(C)C3)cc2N2CCC3(CC2)CC3)nc(N2CCC(F)(F)CC2)n1 [Example 22, N-(2-(4,4-Difluoropiperidin-1-yl)-6-methylpyrimidin-4-yl)-4-((1-methylazetidin-3-yl)sulfonyl)-2-(6-azaspiro[2.5]octan-6-yl)benzamide] | 406 nM |
| Cc1cc(NC(=O)c2ccc(NS(=O)(=O)CCO)cc2N2CCC3(CC2)CC3)nc(N2CCC(O)CC2)n1 [Example 11-37, 4-((2-Hydroxyethyl)sulfonamido)-N-(2-(4-hydroxypiperidin-1-yl)-6-methylpyrimidin-4-yl)-2-(6-azaspiro[2.5]octan-6-yl)benzamide] | 144 nM |
| Cc1cc(NC(=O)c2ccc(NS(=O)(=O)CCO)cc2N2CCC3(CC2)CC3)nc(N2CC([C@H](C)O)C2)n1 [Example 11-21, (S)-N-(2-(3-(1-Hydroxyethyl)azetidin-1-yl)-6-methylpyrimidin-4-yl)-4-((2-hydroxyethyl)sulfonamido)-2-(6-azaspiro[2.5]octan-6-yl)benzamide] | 704 nM |
| Cc1cc(NC(=O)c2ccc(NS(=O)(=O)CCO)cc2N2CCC3(CC2)CC3)nc(N2CC(O)C2)n1 [Example 11-20, N-(2-(3-Hydroxyazetidin-1-yl)-6-methylpyrimidin-4-yl)-4-((2-hydroxyethyl)sulfonamido)-2-(6-azaspiro[2.5]octan-6-yl)benzamide] | 48.3 nM |
| Cc1cc(NC(=O)c2ccc(S(=O)(=O)NC3(C)COC3)cc2N2CCC3(CC2)CC3)nc(NC(C)(C)CO)n1 [Example 1-7, N-(2-((1-Hydroxy-2-methylpropan-2-yl)amino)-6-methylpyrimidin-4-yl)-4-(N-(3-methyloxetan-3-yl)sulfamoyl)-2-(6-azaspiro[2.5]octan-6-yl)benzamide] | 168 nM |
| Cc1cc(NC(=O)c2ccc(NS(=O)(=O)C3COC3)cc2N2CCC3(CC2)CC3)nc(N2CC(F)(F)C2)n1 [Example 11-23, N-(2-(3,3-Difluoroazetidin-1-yl)-6-methylpyrimidin-4-yl)-4-(oxetane-3-sulfonamido)-2-(6-azaspiro[2.5]octan-6-yl)benzamide] | 48.9 nM |
| Cc1cc(NC(=O)c2ccc(S(=O)(=O)NC3(C)COC3)cc2N2CCC3(CC2)CC3)nc(N2CCC(F)(F)CC2)n1 [Example 2-5, N-(2-(4,4-Difluoropiperidin-1-yl)-6-methylpyrimidin-4-yl)-4-(N-(3-methyloxetan-3-yl)sulfamoyl)-2-(6-azaspiro[2.5]octan-6-yl)benzamide] | 103 nM |
| Cc1cc(NC(=O)c2ccc(NS(=O)(=O)CCO)cc2N2CCC3(CC2)CC3)nc(N2[C@H](C)COC[C@H]2C)n1 [Example 11-50, N-(2-((3R,5R)-3,5-Dimethylmorpholino)-6-methylpyrimidin-4-yl)-4-((2-hydroxyethyl)sulfonamido)-2-(6-azaspiro[2.5]octan-6-yl)benzamide] | 187 nM |
| Cc1cc(NC(=O)c2ccc(S(C)(=O)=O)cc2N2CCC3(CC2)CC3)nc(NCCO)n1 [Example 1-3, N-(2-((2-Hydroxyethyl)amino)-6-methylpyrimidin-4-yl)-4-(methylsulfonyl)-2-(6-azaspiro[2.5]octan-6-yl)benzamide] | 849 nM |
| Cc1cc(NC(=O)c2ccc(NS(=O)(=O)CCO)cc2N2CCC3(CC2)CC3)nc(N2CCC[C@@H]3C[C@@H]32)n1 [Example 11-44, N-(2-((1S,6R)-2-Azabicyclo[4.1.0]heptan-2-yl)-6-methylpyrimidin-4-yl)-4-((2-hydroxyethyl)sulfonamido)-2-(6-azaspiro[2.5]octan-6-yl)benzamide] | 33 nM |
| Cc1cc(NC(=O)c2ccc(S(C)(=O)=O)cc2N2CCC3(CC2)CC3)nc(N2CCC(F)(F)CC2)n1 [Example 2-6, N-(2-(4,4-Difluoropiperidin-1-yl)-6-methylpyrimidin-4-yl)-4-(methylsulfonyl)-2-(6-azaspiro[2.5]octan-6-yl)benzamide] | 260 nM |
| Cc1cc(NC(=O)c2ccc(NS(=O)(=O)CCO)cc2N2CCC3(CC2)CC3)nc(N2CCC3C[C@]3(O)C2)n1 (stereo partly drawn) [Example 11-42, N-(2-((1R)-1-Hydroxy-3-azabicyclo[4.1.0]heptan-3-yl)-6-methylpyrimidin-4-yl)-4-((2-hydroxyethyl)sulfonamido)-2-(6-azaspiro[2.5]octan-6-yl)benzamide] | 34 nM |
| Cc1cc(NC(=O)c2ccc(NS(=O)(=O)CCO)cc2N2CCC3(CC2)CC3)nc(N2[C@@H](C)COC[C@@H]2C)n1 [Example 11-49, N-(2-((3S,5S)-3,5-Dimethylmorpholino)-6-methylpyrimidin-4-yl)-4-((2-hydroxyethyl)sulfonamido)-2-(6-azaspiro[2.5]octan-6-yl)benzamide] | 245 nM |
| C[C@@H]1CN(c2nccc(NC(=O)c3ccc(NS(=O)(=O)C[C@@H](C)O)cc3N3CCC4(CC3)CC4)n2)CCO1 [Example 6-33-2, 4-(((R)-2-hydroxypropyl)sulfonamido)-N-(2-((R)-2-methylmorpholino)pyrimidin-4-yl)-2-(6-azaspiro[2.5]octan-6-yl)benzamide] | 86 nM |
| CC1(NS(=O)(=O)c2ccc(C(=O)Nc3ccnc(N4CCC(F)(F)CC4)c3)c(N3CCC4(CC3)CC4)c2)COC1 [Example 2-4, N-(2-(4,4-Difluoropiperidin-1-yl)pyridin-4-yl)-4-(N-(3-methyloxetan-3-yl)sulfamoyl)-2-(6-azaspiro[2.5]octan-6-yl)benzamide] | 29 nM |
| Cc1cc(NC(=O)c2ccc(NS(=O)(=O)C(C)(C)C)cc2N2CCC3(CC2)CC3)nc(N2CCC(F)(F)CC2)n1 [Example 6-14, N-(2-(4,4-Difluoropiperidin-1-yl)-6-methylpyrimidin-4-yl)-4-((1,1-dimethylethyl)sulfonamido)-2-(6-azaspiro[2.5]octan-6-yl)benzamide] | 413 nM |
| Cc1cc(NC(=O)c2ccc(S(C)(=O)=O)cc2N2CCC3(CC2)CC3)nc(NC[C@H](C)O)n1 [Example 1-5, (S)-N-(2-((2-Hydroxypropyl)amino)-6-methylpyrimidin-4-yl)-4-(methylsulfonyl)-2-(6-azaspiro[2.5]octan-6-yl)benzamide] | 451 nM |
| Cc1cc(NC(=O)c2cc(F)c(NS(=O)(=O)CCO)cc2N2CCC3(CC2)CC3)nc(N2CCC(F)(F)CC2)n1 [Example 11-67, N-(2-(4,4-Difluoropiperidin-1-yl)-6-methylpyrimidin-4-yl)-5-fluoro-4-((2-hydroxyethyl)sulfonamido)-2-(6-azaspiro[2.5]octan-6-yl)benzamide] | 34 nM |
